According to the CheMixHub viscosity set:
Several values for one entry are separate records, joined by “and”; a condition that tells them apart may be missing. Identical values can stand only once.

How the values were obtained:
[1] = xn = mol fraction of the nth substance listed

CCC(C)(O)CC
Conditions | viscosity
298.15 K, 101.33 kPa | 3.918 mPa·s and 3.918 mPa·s

CCN(CC)CC
Conditions | viscosity
293.15 K, 100 kPa | 0.3608 mPa·s
293.15 K, 101 kPa | 0.369 mPa·s
297.85 K, 101 kPa | 0.352 mPa·s
298 K, 101.33 kPa | 0.35 mPa·s
298.15 K, 100 kPa | 0.353 mPa·s and 0.3534 mPa·s (2×)
298.15 K, 101 kPa | 0.344 mPa·s
302.85 K, 101 kPa | 0.335 mPa·s
303.15 K, 100 kPa | 0.339 mPa·s and 0.3387 mPa·s (2×)
303.15 K, 101 kPa | 0.333 mPa·s
303.15 K, 101.33 kPa | 0.3592 mPa·s and 0.3592 mPa·s
307.85 K, 101 kPa | 0.319 mPa·s
308.15 K, 100 kPa | 0.322 mPa·s and 0.3221 mPa·s (2×)
312.95 K, 101 kPa | 0.304 mPa·s
313.15 K, 101 kPa | 0.302 mPa·s
313.15 K, 101.33 kPa | 0.3249 mPa·s and 0.3249 mPa·s
317.75 K, 101 kPa | 0.291 mPa·s
322.75 K, 101 kPa | 0.278 mPa·s
323.15 K, 101 kPa | 0.275 mPa·s

CCCCCCCC(=O)[O-].CC[NH+](C(C)C)C(C)C
Conditions | viscosity [mPa·s]
298.15 K, 101.3 kPa | 13.52

CCCCCCCCCCCCCC[P+](CCCCCC)(CCCCCC)CCCCCC.O=S(=O)([N-]S(=O)(=O)C(F)(F)F)C(F)(F)F
Conditions | viscosity [mPa·s]
313.15 K, 101 kPa | 150

CC(C)[O-].CC(C)[O-].CC(C)[O-].CC(C)[O-].[Ti+4]
101.3 kPa
Conditions | viscosity [mPa·s]
293.15 K | 3.144
303.15 K | 1.845
313.15 K | 1.279
323.15 K | 1.003

CC[N+](C)(CC)CCOC.F[B-](F)(F)F
101 kPa
Conditions | viscosity [mPa·s]
293.15 K | 228.1
298.15 K | 178.6
303.15 K | 140.4
308.15 K | 111.4
313.15 K | 89.27
318.15 K | 70.53
323.15 K | 57.55

CCCC(C)=O
Conditions | viscosity
293.15 K, 101 kPa | 0.506 mPa·s
298.15 K, 101 kPa | 0.463 mPa·s and 0.4591 mPa·s and 0.4673 mPa·s
303.15 K, 100 kPa | 0.435 mPa·s
303.15 K, 101 kPa | 0.437 mPa·s and 0.435 mPa·s
303.15 K, 101.32 kPa | 0.466 mPa·s
303.15 K, 101.33 kPa | 0.456 mPa·s
308.15 K, 100 kPa | 0.422 mPa·s
308.15 K, 101 kPa | 0.413 mPa·s and 0.422 mPa·s and 0.4197 mPa·s
313.15 K, 100 kPa | 0.409 mPa·s
313.15 K, 101 kPa | 0.405 mPa·s
318.15 K, 101 kPa | 0.3782 mPa·s
323.15 K, 101 kPa | 0.3584 mPa·s

CCOC(=O)c1ccccc1O
Conditions | viscosity [mPa·s]
303.15 K, 101 kPa | 3.117

CC1CCCCC1O (stereo unspecified)
viscosity [mPa·s]
Conditions | 293.15 K | 298.15 K | 303.15 K | 308.15 K | 313.15 K
100 kPa | 38.6 | 26.99 | 18.91 | 13.95 | 10.53
101 kPa | 21.7 | – | – | – | –

ClC(Cl)(Cl)Cl
Conditions | viscosity
293.15 K, 101 kPa | 0.95 mPa·s and 0.9826 mPa·s
298 K, 101 kPa | 0.9128 mPa·s
298 K, 101.3 kPa | 0.892 mPa·s
298 K, 101.33 kPa | 0.899 mPa·s
298.15 K, 100 kPa | 0.9062 mPa·s and 0.897 mPa·s
298.15 K, 101.32 kPa | 0.902 mPa·s and 0.902 mPa·s
298.16 K, 101 kPa | 0.907 mPa·s
301.85 K, 101 kPa | 0.9088 mPa·s
303 K, 101.33 kPa | 0.8371 mPa·s and 0.838 mPa·s
303.15 K, 100 kPa | 0.845 mPa·s and 0.838 mPa·s
303.15 K, 101.3 kPa | 0.8427 mPa·s and 0.8427 mPa·s
303.15 K, 101.33 kPa | 0.845 mPa·s and 0.845 mPa·s and 0.768 mPa·s
308 K, 101 kPa | 0.7888 mPa·s
308.15 K, 100 kPa | 0.7897 mPa·s and 0.784 mPa·s
308.15 K, 101.33 kPa | 0.717 mPa·s
312.15 K, 101 kPa | 0.7815 mPa·s
313 K, 101.33 kPa | 0.7436 mPa·s and 0.735 mPa·s
313.15 K, 100 kPa | 0.7394 mPa·s and 0.734 mPa·s
313.15 K, 101.33 kPa | 0.739 mPa·s and 0.7392 mPa·s
318 K, 101 kPa | 0.6788 mPa·s
318 K, 101.3 kPa | 0.7444 mPa·s and 0.7449 mPa·s
318 K, 101.33 kPa | 0.7449 mPa·s
318.15 K, 100 kPa | 0.689 mPa·s
323 K, 101.33 kPa | 0.6566 mPa·s and 0.653 mPa·s
323.15 K, 101 kPa | 0.712 mPa·s
323.15 K, 101.33 kPa | 0.6543 mPa·s

CCCC[n+]1ccccc1.N#C[N-]C#N
101 kPa
Conditions | viscosity [mPa·s]
293.15 K | 41.05
298.15 K | 33.27
303.15 K | 27.62
308.15 K | 22.9
313.15 K | 19.3
318.15 K | 16.73
323.15 K | 14.44

CCCOC(C)=O
viscosity
Conditions | 293.15 K | 298.15 K | 303.15 K | 308.15 K | 313.15 K | 318.15 K
101 kPa | 0.591 mPa·s | 0.56 mPa·s and 0.553 mPa·s and 0.562 mPa·s | 0.525 mPa·s | 0.487 mPa·s and 0.488 mPa·s | 0.462 mPa·s and 0.451 mPa·s | 0.439 mPa·s
101.33 kPa | – | 0.563 mPa·s | 0.524 mPa·s and 0.512 mPa·s | 0.489 mPa·s and 0.483 mPa·s | – | –

CCn1cc[n+](C)c1.O=C([O-])[C@@H]1CCCN1
101 kPa
Conditions | viscosity [mPa·s]
298.15 K | 1195
303.15 K | 771.5

CC[n+]1ccn(C)c1.N#C[N-]C#N
viscosity
Conditions | 298.15 K | 303.15 K | 308.15 K | 313.15 K | 318.15 K | 323.15 K
100 kPa | 14.78 mPa·s and 13.09 mPa·s | 12.88 mPa·s and 11.39 mPa·s | 11.3 mPa·s and 10 mPa·s | 9.759 mPa·s and 8.86 mPa·s | 8.929 mPa·s and 7.92 mPa·s | 8.01 mPa·s and 7.13 mPa·s
101 kPa | 14.9 mPa·s and 17.4 mPa·s | – | – | 10.07 mPa·s | – | –

[Cl-].[Cl-].[Cu+2] + O
viscosity [mPa·s], [1]
Conditions | x1 = 0.000905 | x1 = 0.00112 | x1 = 0.002247 | x1 = 0.002718 | x1 = 0.004484 | x1 = 0.00453 | x1 = 0.006344 | x1 = 0.008159 | x1 = 0.008927 | x1 = 0.0177
308.15 K, 101.3 kPa | – | 0.739 | 0.7708 | – | 0.8088 | – | – | – | 0.879 | 0.9692
308.15 K, 101.33 kPa | 0.7395 | – | – | 0.7712 | – | 0.8092 | 0.8409 | 0.879 | – | –
313.15 K, 101.3 kPa | – | 0.6675 | 0.697 | – | 0.7375 | – | – | – | 0.794 | 0.8595
313.15 K, 101.33 kPa | 0.668 | – | – | 0.6975 | – | 0.738 | 0.762 | 0.7945 | – | –
323.15 K, 101.3 kPa | – | 0.577 | 0.601 | – | 0.637 | – | – | – | 0.6967 | 0.7595
323.15 K, 101.33 kPa | 0.5775 | – | – | 0.6015 | – | 0.6375 | 0.6685 | 0.6972 | – | –

O=C1CCCCCN1 + O=C(O)c1ccccc1
[1], 101 kPa, x1 = 0.5
Conditions | viscosity [mPa·s]
303.2 K | 104.2
313.1 K | 48.15
323.1 K | 27.31

ClC(Cl)(Cl)Cl + CC#N
viscosity [mPa·s], [1], 101 kPa
Conditions | 293.15 K | 298.15 K | 303.15 K | 313.15 K | 323.15 K
x2 = 0.007 | 0.954 | 0.883 | 0.813 | 0.74 | 0.638
x2 = 0.026 | 0.948 | 0.855 | 0.798 | 0.724 | 0.612
x2 = 0.084 | 0.906 | 0.862 | 0.831 | 0.736 | 0.659
